Tested on: 596521-263-R-J1-PDC complex spheroid growth
Assay: Anticancer human tumor 596521-263-R-J1-PDC patient-derived soft tissue sarcoma cell line growth inhibition [Asc]
Conditions: for IC50: curve of first compound; for viability, T/C: stronger effect = lower value
Summary of the method: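 Tumor cells were grown as multicellular spheroids with stromal HUVEC and mesenchymal stem cells and treated singly or in combination. Concentrations fell in half-log steps from the clinical Cmax, or from 10 microM where none was known.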

[1] = second compound 0.00949 µM, first compound 0.00316 µM
[2] = second compound 0.00949 µM, first compound 0.01 µM
[3] = second compound 0.00949 µM, first compound 0.0316 µM
[4] = second compound 0.00949 µM, first compound 0.1 µM
[5] = second compound 0.00949 µM, first compound 0.316 µM
[6] = second compound 0.00949 µM, first compound 1 µM
[7] = second compound 0.03 µM, first compound 0.00316 µM
[8] = second compound 0.03 µM, first compound 0.01 µM
[9] = second compound 0.03 µM, first compound 0.0316 µM
[10] = second compound 0.03 µM, first compound 0.1 µM
[11] = second compound 0.03 µM, first compound 0.316 µM
[12] = second compound 0.03 µM, first compound 1 µM
[13] = second compound 0.0949 µM, first compound 0.00316 µM
[14] = second compound 0.0949 µM, first compound 0.01 µM
[15] = second compound 0.0949 µM, first compound 0.0316 µM
[16] = second compound 0.0949 µM, first compound 0.1 µM
[17] = second compound 0.0949 µM, first compound 0.316 µM
[18] = second compound 0.0949 µM, first compound 1 µM
[19] = second compound 0.3 µM, first compound 0.00316 µM
[20] = second compound 0.3 µM, first compound 0.01 µM
[21] = second compound 0.3 µM, first compound 0.0316 µM
[22] = second compound 0.3 µM, first compound 0.1 µM
[23] = second compound 0.3 µM, first compound 0.316 µM
[24] = second compound 0.3 µM, first compound 1 µM
[25] = second compound 0.949 µM, first compound 0.00316 µM
[26] = second compound 0.949 µM, first compound 0.01 µM
[27] = second compound 0.949 µM, first compound 0.0316 µM
[28] = second compound 0.949 µM, first compound 0.1 µM
[29] = second compound 0.949 µM, first compound 0.316 µM
[30] = second compound 0.949 µM, first compound 1 µM
[31] = second compound 3 µM, first compound 0.00316 µM
[32] = second compound 3 µM, first compound 0.01 µM
[33] = second compound 3 µM, first compound 0.0316 µM
[34] = second compound 3 µM, first compound 0.1 µM
[35] = second compound 3 µM, first compound 0.316 µM
[36] = second compound 3 µM, first compound 1 µM
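Note: spheroids exposed to compounds for 7 days.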

**Q.** `O=C(c1ccc(F)c(F)c1Nc1ccc(I)cc1F)N1CC(O)([C@@H]2CCCCN2)C1` + CCN1C(C(=O)NC23CCC(C(=O)O)(CC2)CC3)C(c2cccc(Cl)c2F)C2(C(=O)Nc3cc(Cl)ccc32)C12CCCCC2 was tested. Which IC50 (second compound 0.00949 µM) did it give?
**A.** 493 nM

**Q.** And the IC50 (second compound 0.03 µM)?
**A.** 466 nM

**Q.** What about the IC50 (second compound 0.0949 µM) of the same compound?
**A.** 418 nM

**Q.** What about the IC50 (second compound 0.3 µM) of the same compound?
**A.** 428 nM

**Q.** And the IC50 (second compound 0.949 µM)?
**A.** 356 nM

**Q.** What about the IC50 (second compound 3 µM) of the same compound?
**A.** 315 nM

**Q.** What about the viability, T/C [1] of the same compound?
**A.** 113%

**Q.** What about the viability, T/C [2] of the same compound?
**A.** 98.4%

**Q.** And the viability, T/C [3]?
**A.** 112%

**Q.** What about the viability, T/C [4] of the same compound?
**A.** 83.6%

**Q.** And the viability, T/C [5]?
**A.** 58.4%

**Q.** And the viability, T/C [6]?
**A.** 38.8%

**Q.** What about the viability, T/C [7] of the same compound?
**A.** 104%

**Q.** And the viability, T/C [8]?
**A.** 100%

**Q.** And the viability, T/C [9]?
**A.** 103%

**Q.** And the viability, T/C [10]?
**A.** 81.9%

**Q.** And the viability, T/C [11]?
**A.** 57.8%

**Q.** And the viability, T/C [12]?
**A.** 36.4%

**Q.** And the viability, T/C [13]?
**A.** 101%

**Q.** And the viability, T/C [14]?
**A.** 96.1%

**Q.** What about the viability, T/C [15] of the same compound?
**A.** 112%

**Q.** And the viability, T/C [16]?
**A.** 84.3%

**Q.** What about the viability, T/C [17] of the same compound?
**A.** 56.4%

**Q.** What about the viability, T/C [18] of the same compound?
**A.** 34.3%

**Q.** What about the viability, T/C [19] of the same compound?
**A.** 119%

**Q.** And the viability, T/C [20]?
**A.** 94.9%

**Q.** And the viability, T/C [21]?
**A.** 101%

**Q.** And the viability, T/C [22]?
**A.** 79.1%

**Q.** What about the viability, T/C [23] of the same compound?
**A.** 51.4%

**Q.** What about the viability, T/C [24] of the same compound?
**A.** 37%

**Q.** What about the viability, T/C [25] of the same compound?
**A.** 97.8%

**Q.** What about the viability, T/C [26] of the same compound?
**A.** 99.8%

**Q.** What about the viability, T/C [27] of the same compound?
**A.** 98.2%

**Q.** What about the viability, T/C [28] of the same compound?
**A.** 82.9%

**Q.** And the viability, T/C [29]?
**A.** 51.4%

**Q.** What about the viability, T/C [30] of the same compound?
**A.** 39.7%

**Q.** What about the viability, T/C [31] of the same compound?
**A.** 97.1%

**Q.** And the viability, T/C [32]?
**A.** 84.9%

**Q.** And the viability, T/C [33]?
**A.** 91.5%

**Q.** And the viability, T/C [34]?
**A.** 65.6%

**Q.** And the viability, T/C [35]?
**A.** 53.4%

**Q.** What about the viability, T/C [36] of the same compound?
**A.** 44.5%

**Q.** `CNC(C)C(=O)NC1CN(S(=O)(=O)c2cccc(S(=O)(=O)N3CCC4CCC(C(=O)NC(c5ccccc5)c5ccccc5)N4C(=O)C(NC(=O)C(C)NC)C3)c2)CCC2CCC(C(=O)NC(c3ccccc3)c3ccccc3)N2C1=O` (centres undefined) + CCN1C(C(=O)NC23CCC(C(=O)O)(CC2)CC3)C(c2cccc(Cl)c2F)C2(C(=O)Nc3cc(Cl)ccc32)C12CCCCC2 was tested. Which IC50 (second compound 0.00949 µM) did it give?
**A.** > 1000 nM

**Q.** And the IC50 (second compound 0.03 µM)?
**A.** > 1000 nM

**Q.** What about the IC50 (second compound 0.0949 µM) of the same compound?
**A.** > 1000 nM

**Q.** And the IC50 (second compound 0.3 µM)?
**A.** > 1000 nM

**Q.** And the IC50 (second compound 0.949 µM)?
**A.** > 1000 nM

**Q.** What about the IC50 (second compound 3 µM) of the same compound?
**A.** > 1000 nM

**Q.** And the viability, T/C [1]?
**A.** 92.4%

**Q.** What about the viability, T/C [2] of the same compound?
**A.** 87.3%

**Q.** What about the viability, T/C [3] of the same compound?
**A.** 111%

**Q.** And the viability, T/C [4]?
**A.** 96%

**Q.** And the viability, T/C [5]?
**A.** 87%

**Q.** And the viability, T/C [6]?
**A.** 86.3%

**Q.** And the viability, T/C [7]?
**A.** 96.4%

**Q.** What about the viability, T/C [8] of the same compound?
**A.** 86.5%

**Q.** What about the viability, T/C [9] of the same compound?
**A.** 88.5%

**Q.** And the viability, T/C [10]?
**A.** 87.7%

**Q.** And the viability, T/C [11]?
**A.** 87.5%

**Q.** What about the viability, T/C [12] of the same compound?
**A.** 73.1%

**Q.** What about the viability, T/C [13] of the same compound?
**A.** 102%

**Q.** And the viability, T/C [14]?
**A.** 105%

**Q.** And the viability, T/C [15]?
**A.** 85.2%

**Q.** What about the viability, T/C [16] of the same compound?
**A.** 94.7%

**Q.** What about the viability, T/C [17] of the same compound?
**A.** 91.4%

**Q.** What about the viability, T/C [18] of the same compound?
**A.** 89.8%

**Q.** What about the viability, T/C [19] of the same compound?
**A.** 104%

**Q.** What about the viability, T/C [20] of the same compound?
**A.** 104%

**Q.** What about the viability, T/C [21] of the same compound?
**A.** 98.4%

**Q.** What about the viability, T/C [22] of the same compound?
**A.** 91.5%

**Q.** And the viability, T/C [23]?
**A.** 94.2%

**Q.** What about the viability, T/C [24] of the same compound?
**A.** 70.3%

**Q.** And the viability, T/C [25]?
**A.** 99%

**Q.** And the viability, T/C [26]?
**A.** 90.2%

**Q.** And the viability, T/C [27]?
**A.** 98.8%

**Q.** And the viability, T/C [28]?
**A.** 80.3%

**Q.** And the viability, T/C [29]?
**A.** 78.8%

**Q.** And the viability, T/C [30]?
**A.** 84.4%

**Q.** What about the viability, T/C [31] of the same compound?
**A.** 78.2%

**Q.** And the viability, T/C [32]?
**A.** 87.8%

**Q.** What about the viability, T/C [33] of the same compound?
**A.** 82.8%

**Q.** What about the viability, T/C [34] of the same compound?
**A.** 73.5%

**Q.** What about the viability, T/C [35] of the same compound?
**A.** 69.3%

**Q.** What about the viability, T/C [36] of the same compound?
**A.** 65.4%
